{"source": "paper PMC10118286", "about": "(Journal of medicinal chemistry, 2021)", "key": {"BRD4 [1]": {"target": "T1, BRD4 (Homo sapiens, UniProt O60885)", "assay": "BRD4 inhibition assay", "type": "binding"}, "MDA-MB-231 cells [2]": {"test_system": "MDA-MB-231 cells", "conditions": "read-out: Anti-proliferative active (IC50, μM) MDA-MB-231; cell viability assay for 24 h"}, "MDA-MB-468 cells [3]": {"test_system": "MDA-MB-468 cells", "conditions": "read-out: Anti-proliferative active (IC50, μM) MDA-MB-468; cell viability assay for 24 h"}, "[4]": {"assay": "Pharmacokinetic study in SD rats", "type": "in vivo, Sprague–Dawley (SD) rats"}, "MDA-MB-231 xenograft": {"test_system": "MDA-MB-231 xenograft", "assay": "MDA-MB-231 xenograft tumor model", "type": "in vivo, nude mice (BALB/c)"}, "MCF-10A cells": {"test_system": "MCF-10A cells", "assay": "Cell viability", "type": "cell-based"}, "BRD4 [5]": {"target": "T1, BRD4", "assay": "CETSA in MDA-MB-231 cells, BRD4", "type": "cell-based", "conditions": "5 μM, 6 h"}, "CK2α": {"target": "CK2α (Homo sapiens, UniProt P68400)", "sequence (P68400 whole entry)": "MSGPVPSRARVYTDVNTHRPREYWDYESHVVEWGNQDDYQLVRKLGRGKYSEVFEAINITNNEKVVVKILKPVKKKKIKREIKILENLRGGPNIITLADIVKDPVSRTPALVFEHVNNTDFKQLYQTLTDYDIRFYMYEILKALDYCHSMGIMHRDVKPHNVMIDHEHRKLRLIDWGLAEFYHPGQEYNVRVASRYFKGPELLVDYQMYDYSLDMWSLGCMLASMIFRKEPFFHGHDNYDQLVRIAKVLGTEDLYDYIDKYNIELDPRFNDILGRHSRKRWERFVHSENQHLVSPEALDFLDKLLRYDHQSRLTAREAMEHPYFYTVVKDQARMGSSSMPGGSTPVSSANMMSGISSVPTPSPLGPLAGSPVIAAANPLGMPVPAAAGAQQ", "assay": "CETSA in MDA-MB-231 cells, CK2α", "type": "cell-based", "conditions": "5 μM, 6 h"}, "p-BRD4^S492 [6]": {"test_system": "p-BRD4^S492", "assay": "Western blot of p-BRD4 S492, MDA-MB-231 cells", "type": "cell-based", "conditions": "0, 2.5, 5, and 10 μM for 24 h"}, "p-BRD4^S492 [7]": {"test_system": "p-BRD4^S492", "assay": "Western blot of p-BRD4 S492, MDA-MB-468 cells", "type": "cell-based", "conditions": "0, 2.5, 5, and 10 μM for 24 h"}, "MDA-MB-231 cells [8]": {"test_system": "MDA-MB-231 cells", "assay": "Colony formation assay, MDA-MB-231", "type": "cell-based", "conditions": "0, 2.5, 5, and 10 μM for 7 days"}, "MDA-MB-468 cells [9]": {"test_system": "MDA-MB-468 cells", "assay": "Colony formation assay, MDA-MB-468", "type": "cell-based", "conditions": "0, 2.5, 5, and 10 μM for 7 days"}, "MDA-MB-231 cells [10]": {"test_system": "MDA-MB-231 cells", "assay": "Annexin-V/PI flow cytometry apoptosis, MDA-MB-231", "type": "cell-based", "conditions": "24 h"}, "MDA-MB-468 cells [11]": {"test_system": "MDA-MB-468 cells", "assay": "Annexin-V/PI flow cytometry apoptosis, MDA-MB-468", "type": "cell-based", "conditions": "24 h"}, "MDA-MB-231 cells [12]": {"test_system": "MDA-MB-231 cells", "assay": "Autophagy assay", "type": "cell-based", "conditions": "5 μM"}, "MDA-MB-468 cells [13]": {"test_system": "MDA-MB-468 cells", "assay": "Autophagy assay", "type": "cell-based", "conditions": "5 μM"}, "CK1": {"test_system": "CK1", "conditions": "read-out: CK1 inhibitory profile (IC50); triplicate, mean ± SD"}, "MDA-MB-231R cells": {"test_system": "MDA-MB-231R cells", "assay": "Antiproliferative activity toward compound 1-resistant MDA-MB-231R cells", "conditions": "p < 0.01"}, "CK2 [14]": {"target": "T2, CK2 (Homo sapiens, UniProt P68400)", "T2 sequence (P68400 whole entry)": "as above", "assay": "biochemical", "conditions": "read-out: Kinase inhibitory activity (1 μM, %) CK2"}, "CK2 [15]": {"target": "T2, CK2", "conditions": "10 μM"}, "[16]": {"conditions": "25 and 50 mg/kg, intragastric, 19 days"}, "[17]": {"conditions": "intragastric, once a day for 19 days"}}}
{"compound": "Cc1sc2c(c1C)C(c1ccc(Cl)cc1)=N[C@@H](CC(=O)OC(C)(C)C)c1nnc(C)n1-2", "note": "[Compound 1, JQ1, reference compound]", "values": [{"measurement": "inhibition at 1 µM", "setting": "BRD4 [1]; read-out: Kinase inhibitory activity (1 μM, %) BRD4", "value": "97 ± 1.32", "unit": "%"}]}
{"compound": "2-(4-(5,7-Dimethoxy-4-oxo-1,4-dihydroquinazolin-2-yl)-phenoxy)-N-(4-methylpiperazin-1-yl)acetamide [Compound 42g]", "values": [{"measurement": "IC50", "setting": "MDA-MB-231 cells [2]", "value": "12.8 ± 1.72", "unit": "µM"}, {"measurement": "IC50", "setting": "MDA-MB-468 cells [3]", "value": "13.7 ± 0.23", "unit": "µM"}]}
{"compound": "2-(4-(5,7-Dimethoxy-4-oxo-1,4-dihydroquinazolin-2-yl)-2,6-dimethylphenoxy)-N-morpholinoacetamide [Compound 42b]", "values": [{"measurement": "IC50", "setting": "MDA-MB-231 cells [2]", "value": "20.6 ± 0.62", "unit": "µM"}, {"measurement": "IC50", "setting": "MDA-MB-468 cells [3]", "value": "18.5 ± 1.23", "unit": "µM"}]}
{"compound": "COc1cc(OC)c2c(=O)[nH]c(-c3ccc(OCC(=O)Nc4ccc(N5CCN(C)CC5)c(Cl)c4)cc3)nc2c1", "note": "[Compound 44e, N-(3-Chloro-4-(4-methylpiperazin-1-yl)phenyl)-2-(4-(5,7-dimethoxy-4-oxo-1,4-dihydroquinazolin-2-yl)phenoxy)acetamide]", "values": [{"measurement": "CL", "setting": "[4]; iv 1 mg/kg", "value": "57.4 ± 1.3 (mL/min)/kg"}, {"measurement": "time at which the highest concentration was observed", "setting": "[4]; po 10 mg/kg", "value": "5.14 ± 0.71", "unit": "h"}, {"measurement": "tumor growth inhibition (in words)", "setting": "MDA-MB-231 xenograft; [16]", "value": "dose-dependent tumor growth inhibition"}, {"measurement": "Ki-67 immunohistochemical staining in tumor tissue", "setting": "MDA-MB-231 xenograft; 25 or 50 mg/kg", "value": "significantly inhibit the proliferation"}, {"measurement": "expression of c-Myc and p-AKT^S129 in xenograft tumor tissues (IHC)", "setting": "MDA-MB-231 xenograft; 25 or 50 mg/kg, compared with control group", "value": "significantly reduced"}, {"measurement": "HE staining of heart, liver, spleen, lung, and kidney tissues", "setting": "MDA-MB-231 xenograft; after 19 days of treatment", "value": "No significant morphologic or structural changes"}, {"measurement": "mouse body weight and death", "setting": "MDA-MB-231 xenograft; [17]", "value": "No significant changes in mouse body weight and death"}, {"measurement": "toxicity to the normal breast cell line MCF-10A", "setting": "MCF-10A cells", "value": "did not have obvious toxicity"}, {"measurement": "thermal stability of BRD4 (CETSA)", "setting": "BRD4 [5]", "value": "improved the thermal stability"}, {"measurement": "thermal stability of CK2α (CETSA)", "setting": "CK2α", "value": "improved the thermal stability"}, {"measurement": "level of p-BRD4^S492", "setting": "p-BRD4^S492 [6]", "value": "dose-dependently downregulated"}, {"measurement": "level of p-BRD4^S492", "setting": "p-BRD4^S492 [7]", "value": "dose-dependently downregulated"}, {"measurement": "colony formation", "setting": "MDA-MB-231 cells [8]", "value": "dose-dependently suppressed growth and reduced the number of colonies"}, {"measurement": "colony formation", "setting": "MDA-MB-468 cells [9]", "value": "dose-dependently suppressed growth and reduced the number of colonies"}, {"measurement": "apoptosis (Annexin-V/PI)", "setting": "MDA-MB-231 cells [10]", "value": "dose-dependently induced apoptosis"}, {"measurement": "apoptosis (Annexin-V/PI)", "setting": "MDA-MB-468 cells [11]", "value": "dose-dependently induced apoptosis"}, {"measurement": "autophagy induction", "setting": "MDA-MB-231 cells [12]", "value": "significantly induced autophagy"}, {"measurement": "autophagy induction", "setting": "MDA-MB-468 cells [13]", "value": "significantly induced autophagy"}, {"measurement": "IC50", "setting": "CK1", "value": "> 10", "unit": "µM"}, {"measurement": "tumor growth inhibition (in words)", "setting": "MDA-MB-468 xenograft; [16]", "value": "dose-dependent tumor growth inhibition"}, {"measurement": "HE staining of heart, liver, spleen, lung, and kidney tissues", "setting": "MDA-MB-468 xenograft; after 19 days of treatment", "value": "No significant morphologic or structural changes"}, {"measurement": "mouse body weight and death", "setting": "MDA-MB-468 xenograft; [17]", "value": "No significant changes in mouse body weight and death"}, {"measurement": "anticancer activity against compound 1-resistant cells", "setting": "MDA-MB-231R cells", "value": "able to alleviate drug resistance of 1"}]}
{"compound": "N-(3-Chloro-4-(4-methylpiperazin-1-yl)phenyl)-2-(4-(7-chloro-4-oxo-1,4-dihydroquinazolin-2-yl)phenoxy)acetamide [Compound 44m]", "values": [{"measurement": "IC50", "setting": "MDA-MB-231 cells [2]", "value": "5.21 ± 0.82", "unit": "µM"}, {"measurement": "IC50", "setting": "MDA-MB-468 cells [3]", "value": "6.23 ± 0.55", "unit": "µM"}]}
{"compound": "COc1cc(OC)c2c(=O)[nH]c(-c3cc(C)c(OCC(=O)Nc4nc5ccccc5[nH]4)c(C)c3)nc2c1", "note": "[Compound 42j, N-(1H-Benzo[d]imidazol-2-yl)-2-(4-(5,7-dimethoxy-4-oxo-1,4-dihydroquinazolin-2-yl)-2,6-dimethylphenoxy)acetamide]", "values": [{"measurement": "inhibition at 1 µM", "setting": "CK2 [14]", "value": "25.6 ± 6.57", "unit": "%"}]}
{"compound": "N-(3-Chloro-4-(4-methylpiperazin-1-yl)phenyl)-2-(4-(6-methoxy-4-oxo-1,4-dihydroquinazolin-2-yl)phenoxy)acetamide [Compound 44k]", "values": [{"measurement": "IC50", "setting": "MDA-MB-231 cells [2]", "value": "14.6 ± 0.77", "unit": "µM"}, {"measurement": "IC50", "setting": "MDA-MB-468 cells [3]", "value": "16.4 ± 0.85", "unit": "µM"}]}
{"compound": "COc1cc(OC)c2c(=O)[nH]c(-c3ccc(OCC(=O)O)cc3)nc2c1", "note": "[Compound 26, 2-(4-(5,7-Dimethoxy-4-oxo-1,4-dihydroquinazolin-2-yl)-phenoxy)acetic Acid]", "values": [{"measurement": "inhibitory ratio on BRD4", "setting": "BRD4 [1]; 10 μM", "value": 63, "unit": "%"}, {"measurement": "inhibitory ratio on CK2", "setting": "CK2 [15]", "value": 45, "unit": "%"}]}
{"compound": "6-Methoxy-2-(2-methoxyphenyl)-4H-chromen-4-one [Compound 33c]", "values": [{"measurement": "IC50", "setting": "MDA-MB-231 cells [2]", "value": "> 50", "unit": "µM"}, {"measurement": "IC50", "setting": "MDA-MB-468 cells [3]", "value": "> 50", "unit": "µM"}]}
{"compound": "N-(3-Chloro-4-(4-methylpiperazin-1-yl)phenyl)-2-(4-(7-methyl-4-oxo-1,4-dihydroquinazolin-2-yl)phenoxy)acetamide [Compound 44n]", "values": [{"measurement": "IC50", "setting": "MDA-MB-231 cells [2]", "value": "17.4 ± 0.56", "unit": "µM"}, {"measurement": "IC50", "setting": "MDA-MB-468 cells [3]", "value": "16.2 ± 1.83", "unit": "µM"}]}
{"compound": "2-(4-(5,7-Dimethoxy-4-oxo-1,4-dihydroquinazolin-2-yl)-phenoxy)-N-morpholinoacetamide [Compound 42a]", "values": [{"measurement": "IC50", "setting": "MDA-MB-231 cells [2]", "value": "14.7 ± 1.55", "unit": "µM"}, {"measurement": "IC50", "setting": "MDA-MB-468 cells [3]", "value": "12.5 ± 0.87", "unit": "µM"}]}
{"compound": "N-(3-Chloro-4-(4-methylpiperazin-1-yl)phenyl)-2-(4-(6-chloro-4-oxo-1,4-dihydroquinazolin-2-yl)phenoxy)acetamide [Compound 44l]", "values": [{"measurement": "IC50", "setting": "MDA-MB-231 cells [2]", "value": "14.4 ± 0.58", "unit": "µM"}, {"measurement": "IC50", "setting": "MDA-MB-468 cells [3]", "value": "15.3 ± 0.72", "unit": "µM"}]}
{"compound": "N-(3-Chloro-4-(4-methylpiperazin-1-yl)phenyl)-2-(4-(6-fluoro-4-oxo-1,4-dihydroquinazolin-2-yl)phenoxy)acetamide [Compound 44j]", "values": [{"measurement": "IC50", "setting": "MDA-MB-231 cells [2]", "value": "6.94 ± 0.68", "unit": "µM"}, {"measurement": "IC50", "setting": "MDA-MB-468 cells [3]", "value": "7.51 ± 1.13", "unit": "µM"}]}
